Laboratory results published in PMC8587515, “Cytotoxic and Anti-Inflammatory Activities of Dihydroisocoumarin and Xanthone Derivatives from Garcinia picrorhiza” (Molecules, 2021).

Legend:
[1] = tested on: Hep G2 (human hepatocellular carcinoma); design: method as in PMID 30153471, PMID 33999337; conditions: MTT; results based on previous work; read-out: IC50 ± SEM, Hep G2; cited from earlier work
[2] = tested on: KB (human epidermoid carcinoma); design: method as in PMID 30153471, PMID 33999337; conditions: MTT; results based on previous work; read-out: IC50 ± SEM, KB; cited from earlier work
[3] = tested on: HeLa S3 (human cervical carcinoma); assay: MTT cytotoxic activity assay, HeLa S3; assay type: cell-based; conditions: 72 h, mean ± SEM of three replicates
Experimental: (§1) The cytotoxic activity of the isolated compounds was evaluated using the MTT viability assay with doxorubicin as the positive control and the results are presented in Table 2.
The MTT colorimetric method was performed to evaluate cytotoxic activity of the isolated compounds against human epidermoid carcinoma (KB; ATCC CCL17), human cervical carcinoma (HeLa S3; ATCC CCL2-2), human colon adenocarcinoma (HT-29; ATCC HTB-38), human breast adenocarcinoma (MCF-7; ATCC HTB-22), and human hepatocellular carcinoma (Hep G2; ATCC HB-8065) cell lines according to the previous method. The cancer cells were cultured in MEM containing 10% fetal bovine serum in the presence of 100 U/mL penicillin and 100 μg/mL streptomycin sulphate (Gibco, Rockville, MD, USA), seeded in a 96-well plate (3000 cells/well), and pre-incubated at 37 °C for 24 h in a 5% CO2 humidified atmosphere. The tested compounds with serial concentrations (0.3–100 μM) were added and incubated for a further 72 h in the same condition. At the end of treatment, 20 µL of MTT solution (5 mg/mL in PBS, Sigma, St. Louis, MI, USA) was added to each well and further incubated for 3 h. After centrifugation at 1400 rpm for 5 min at 4 °C, the supernatant was decanted and DMSO (100 µL/well) was added to allow formazan product solubilization, which was subsequently measured by a microplate reader (Tecan Trading AG, Switzerland) at wavelength 550 nm. Control cells were treated with 0.1% DMSO. Doxorubicin (tested concentrations: 0.01–3.0 μM, Sigma) was used as the positive control. The results are expressed as the mean values of three replicates for three independent experiments. IC50 values were determined by graphical analysis using SigmaPlot 10 (Systat Software Inc., San Jose, CA, USA), obtained by plotting the cell viability percentage versus sample concentration.

[4] = tested on: MCF-7 (human breast adenocarcinoma); assay: MTT cytotoxic activity assay, MCF-7; assay type: cell-based; conditions: MCF7, 72 h, mean ± SEM of three replicates
Experimental: as §1
The MTT colorimetric method was performed to evaluate cytotoxic activity of the isolated compounds against human epidermoid carcinoma (KB; ATCC CCL17), human cervical carcinoma (HeLa S3; ATCC CCL2-2), human colon adenocarcinoma (HT-29; ATCC HTB-38), human breast adenocarcinoma (MCF-7; ATCC HTB-22), and human hepatocellular carcinoma (Hep G2; ATCC HB-8065) cell lines according to the previous method. […] After centrifugation at 1400 rpm for 5 min at 4 °C, the supernatant was decanted and DMSO (100 µL/well) was added to allow formazan product solubilization, which was subsequently measured by a microplate reader (Tecan Trading AG, Switzerland) at wavelength 550 nm. […] The results are expressed as the mean values of three replicates for three independent experiments. IC50 values were determined by graphical analysis using SigmaPlot 10 (Systat Software Inc., San Jose, CA, USA), obtained by plotting the cell viability percentage versus sample concentration.

Q: With `C[C@@H]1Oc2cc(O)c3c(=O)c4ccc(O)c(O)c4oc3c2C1(C)C` [Compound 7, 2-deprenylrheediaxanthone B] as the compound, how does the IC50 [1] read?
A: 10 ± 0.2 µM

Q: What about the IC50 [2] of the same compound?
A: 5.1 ± 0.4 µM

Q: Which IC50 [3] does the source give for `C[C@H]1Oc2c(c(O)c3c(=O)c4ccc(O)c(O)c4oc3c2CCC(C)(C)O)C1(C)C` [Compound 4, gerontoxanthone C hydrate] here?
A: 5.6 ± 0.1 µM

Q: And the IC50 [4]?
A: 5.7 ± 0.3 µM
